This is an account of results in EP0101641A2, “Sulfonylamino-aza-bicyclo-alkyl derivatives” (BEECHAM GROUP PLC, priority 1982, dated 1984).

Format in all cases: in vivo
In one test the test system is intragastric pressure. Description: Increase in intragastric pressure (peripheral dopamine blockade) in conscious restrained rats. Further details: key: A = active; IA = inactive. The conditions noted are these: rat. On the procedure: Increase in intragastric pressure - peripheral dopamine blockade
Intragastric pressure changes were recorded from previously starved conscious but restrained rats using a saline filled catheter inserted into the lumen of the stomach via a permanent gastric fistula. The catheter was connected to a physiological pressure transducer and pressure changes recorded on a hot wire pen recorder. In each animal a pre-dose period of 40 minutes was allowed to obtain a measure of spontaneous activity. An index of activity was obtained by measuring the average height of pressure waves during 10 minute periods. Values for 4 such periods were obtained during assessment of spontaneous activity and for 40 minute period after administration of compound. Student's "T" test was applied to the difference in average values obtained for spontaneous and post compound activity.

The next test relates to vomiting response. Kind of test: Anti-emetic activity in the dog (apomorphine-induced vomiting). Further details: key to Anti-emetic: A = active; IA = inactive. The conditions noted are these: for Anti-emetic: at 0.1 mg/kg s.c., 30 minutes before apomorphine HC1 0.1 mg/kg s.c.; for ED50: Canis lupus familiaris, sc, s.c. 30 minutes before apomorphine HC1 0.1 mg/kg s.c. On the procedure: Anti-emetic activity in the dog
Compounds were administered subcutaneously 30 minutes prior to administration of a standard dose of apomorphine HC1 (0.1 mg/kg subcutaneously) and the vomiting response compared to that obtained when the same animals were dosed with apomorphine HC1 and vehicle only.

Another test relates to Dopamine Receptor. Description: Inhibition of apomorphine induced climbing in the mouse (central dopamine receptor blocking activity). Details: key to CNS (Climbing): A = active; IA = inactive. The conditions noted are these: apomorphine 1mg/kg s.c.

For the molecule “5-hlethanesu-lphonylamido-2-rnethoxy-3-methyl-N-[3a-[8-benzyl-8-azabicyclo(3.2.1)octyl}]benzamide [Compound 10]”, in the test with intragastric pressure (at 1.0 mg/kg s.c.), the “IG Pressure (Basal)” value was “A at 1.0”. In addition, the Anti-emetic result in the test on vomiting response was “A at 0.1”.
As for `COc1cc(NS(C)(=O)=O)c(Cl)cc1C(=O)N[C@@H]1C[C@H]2CC[C@@H](C1)N2Cc1ccccc1` [Compound 1, 4-MethanGsulphonamJdo-5-ch3oro-2-methoxy-N-[3P-(8-benzyl-8-azabicyclo{3.2.1)octyl)]benzainide], in the test on intragastric pressure (at 1.0 mg/kg s.c.), the “IG Pressure (Basal)” value was “A at 1.0”. For the same molecule, the “CNS (Climbing) ED50” value with Dopamine Receptor is recorded as “ED50 0.2 mg/kg s.c”. The same molecule had an ED50 in the test with vomiting response of 0.02 mg/kg.
With `COc1cc(NS(C)(=O)=O)ccc1C(=O)N[C@@H]1C[C@H]2CC[C@@H](C1)N2Cc1ccccc1` [Compound 2, 4-methanesulphonamido-2-methoxy-N-[3β-(8-benzyl-8-azabicyclo(3.2.1)octyl)]benzamide], the “IG Pressure (Basal)” value in the test on intragastric pressure (at 1.0 mg/kg s.c.) is listed as “IA at 1.0”. The “CNS (Climbing)” value in the test on Dopamine Receptor (at 10 mg/kg s.c.) is “A at 10”. In the test on vomiting response, the ED50 stood at 0.1 mg/kg.
For the molecule `COc1cc(NS(C)(=O)=O)c(S(C)(=O)=O)cc1C(=O)N[C@@H]1C[C@H]2CC[C@@H](C1)N2Cc1ccccc1` [Compound 6, 4-Methanesulphonamido-2-methoxy-5-methylsulphonyl-N-[3β-{8-benzy1-8-azabicyclo(3.2.1)octyl)]benzamide], the “IG Pressure (Basal)” value in the test with intragastric pressure (at 5.0 mg/kg s.c.) is “IA at 5.0”. In addition, in the test with Dopamine Receptor (at 50 mg/kg s.c.), the “CNS (Climbing)” value is “IA at 50”. Further, the Anti-emetic entry in the test on vomiting response is listed as “A at 0.1”.

Usually ED50 stands for the midpoint of the dose-response relation.
